# Source: article PMC9317316, “Synthesis and Evaluation of Some New 4H-Pyran Derivatives as Antioxidant, Antibacterial and Anti-HCT-116 Cells of CRC, with Molecular Docking, Antiproliferative, Apoptotic and ADME Investigations” (Pharmaceuticals, 2022)
# Values joined by “and” are separate entries in the source; they are usually repeats but may differ in a detail not shown here. Identical values can stand only once. Like-named read-outs stand apart in the source and are kept apart here.
# Assays:
# [1] = system: HCT-116 cells; assay: Cell viability (cytotoxicity, LDH release) assay; assay type: cell-based; conditions: Homo sapiens, 24 h; for viability at 100 µg/mL: read-out: percent of viable cells
# Procedure: The synthesized compounds were also examined at four concentrations (10, 25, 50 and 100 µg/mL) for their cytotoxic effects on human colorectal cancer HCT-116 cells after their incubation together for 24 h.
# Cytotoxic potency was examined for a human colon cancer cell line HCT-116 (American Type Culture Collection; Manassas, VA, USA) using various amounts of each compound (10, 25, 50 and 100 µg). Samples were diluted in Dulbecco’s Modified Eagle’s Medium, consisting of 10% Fetal Bovine Serum, and added to cells grown and cultured for 24 h in a 5% CO2-humidified incubator at 37 °C. Then, the activity of lactate dehydrogenase released from damaged cells was determined in the collected supernatant aliquots using an ELISA endpoint assay (Benchmark Plus, Bio-Rad, Hercules, CA, USA). As positive and negative controls, respectively, 0.1% Triton X-100 in the assay medium and the assay medium only were used. Cell viability, shown as mean values ± SDs (n = 3), was expressed as a relative percentage of the OD values determined at 600 nm in compound-treated cells and the control.
# [2] = system: E. coli (ATCC 25966); assay: Antibacterial viability (CFU) assay, IC50; assay type: cell-based; conditions: Escherichia coli, ATCC25966; E. coil (ATCC 25966)
# Procedure: (§1) The results for the in vitro antibacterial properties of the synthesized compounds against five Gram-positive and four Gram-negative human-pathogenic strains, which were assessed by both the agar diffusion method (based on inhibition zone (IZ)) and the broth dilution bioassay (for the determination of the half-maximal inhibitory concentration (IC50) values), using ampicillin as the reference antibiotic drug, are shown in Table 2 and Table 3.
# (§2) The antibacterial activity of all synthesized compounds was evaluated against the Gram-negative strains E. coli (ATCC 25966), K. pneumonia (ATCC 700603), P. aeruginosa (ATCC 27853) and S. enteric (ATCC 43972) and against the Gram-positive strains B. cereus (ATCC 14579), B. subtilis (ATCC 6633), E. faecalis (ATCC 29122), S. aureus (ATCC 25923) and S. epidermidis (ATCC 14990), using the agar diffusion method through measuring the appearance of the inhibition zone on the surface of the top agar, as reported by Berghe and Vlietinck. Ampicillin (10 µg/well) was used as the positive reference standard. Bacterial viability was also investigated by determining the colony-forming ability (CFU) of bacteria incubated at different time intervals without or with appropriate amounts of the compound, which were mixed with 2 ×10^7 CFU/mL in sterile BHI and incubated under shaking for 60 min at 37 °C. Samples were serially diluted into sterile BHI, streaked onto media agar plates and incubated for 24 h at 37 °C. The antibacterial potency of the tested compounds was expressed as the residual number of CFUs with reference to the initial inoculums. The results presented as the half-maximal (50 %) inhibitory concentration (IC50) values are the means of three different measurements.
# [3] = system: B. cereus (ATCC 14579); assay: Antibacterial viability (CFU) assay, IC50; assay type: cell-based; conditions: Bacillus cereus, ATCC14579
# Procedure: as §1, §2
# [4] = system: K. pneumonia (ATCC 700603); assay: Antibacterial viability (CFU) assay, IC50; assay type: cell-based; conditions: Klebsiella pneumoniae, ATCC700603
# Procedure: as §1, §2
# [5] = system: P. aeruginosa (ATCC 27853); assay: Antibacterial viability (CFU) assay, IC50; assay type: cell-based; conditions: Pseudomonas aeruginosa, ATCC27853
# Procedure: as §1, §2
# [6] = system: S. enteric (ATCC 43972); assay: Antibacterial viability (CFU) assay, IC50; assay type: cell-based; conditions: read-out: IC50
# Procedure: as §1, §2
# [7] = system: B. subtilis (ATCC 6633); assay: Antibacterial viability (CFU) assay, IC50; assay type: cell-based
# Procedure: as §1, §2
# [8] = system: S. aureus (ATCC 25923); assay: Antibacterial viability (CFU) assay, IC50; assay type: cell-based; conditions: Staphylococcus aureus, ATCC25923
# Procedure: as §1, §2
# [9] = system: E. faecalis (ATCC 29122); assay: Antibacterial viability (CFU) assay, IC50; assay type: cell-based; conditions: Enterococcus faecalis, ATCC29122
# Procedure: as §1, §2
# [10] = system: S. epidermidis (ATCC 14990); assay: Antibacterial viability (CFU) assay, IC50; assay type: cell-based; conditions: Staphylococcus epidermidis, ATCC14990
# Procedure: as §1, §2
# [11] = DPPH radical scavenging assay; conditions: for IC50: 0.03 to 1 mg/mL, 1 h, mean ± SD, triplicate, read-out: IC50 (mM) for DPPH Scavenging Potency
# Procedure: The IC50 values for DPPH were calculated from the plot of the scavenging effect against the compound concentration.
# The compounds’ capacities to scavenge the stable radical 1,1 diphenyl-2-picrylhydrazyl (DPPH) formed in solution by donation of a hydrogen atom or an electron was investigated according to the method described by Bersuder and coworkers. Due to the fact that the initial blue/purple solution of diphenyl picrylhydrazine changes to yellow in the presence of compounds with a capacity to scavenge DPPH free radicals, this reaction is used as a measure of a compound’s ability to scavenge any free radical. Briefly, a 0.5 mL volume of DPPH ethanolic solution was mixed with an equal volume of each sample concentration (0.03 to 1 mg/mL), shaken strongly and incubated at room temperature for 1 h in darkness. The absorbance of the residual DPPH radicals was measured at 519 nm and compared to that of the control (without the tested compound). DPPH radical scavenging was calculated using the following formula: Scavenging effect (%) = (1 − Acompound/AControl) × 100, where Acompound and Acontrol are the absorbances of the tested compound and of the control, respectively. A plot of the scavenging effect (%) versus the sample concentration was also performed to determine the compound concentration providing 50% inhibition (IC50).
# [12] = Reducing power assay (FRAC, Fe3+ to Fe2+); conditions: 0-1 mg/mL, absorbance 700 nm
# Procedure: Secondly, FRAC was determined over the concentration range of 0.0−1 mg/mL via monitoring Fe^3+−Fe^2+ transformation in the presence of the studied compounds and the reference antioxidant BHT to estimate the values of efficient concentration (EC50), expressed in mM.
# The reducing power of the studied compounds was assessed according to Oyaizu’s method. Briefly, different concentrations (ranging from 0 to 1 mg/mL) of each tested compound were first mixed with 1 mL of 0.2 M sodium phosphate buffer (pH 6.6) and 1 mL of 1% potassium ferricyanide (K3Fe(CN)6) and incubated at 50 °C for 20 min. After the addition of 1.25 mL of 20% trichloroacetic acid (TCA), the mixture was centrifuged for 10 min at 3000 rpm and the upper layer solution was then mixed with 0.5 mL of 0.1% fresh ferric chloride and an equal volume of deionized water. Finally, the absorption of the resulting mixture was measured at 700 nm using a UV spectrophotometer against distilled water as the blank, while butylated hydroxytoluene (BHT) was used as a positive control. The sample ferric reducing power capability was indicated by increased absorbance.
# [13] = system: E. coli (ATCC 25966); assay: Antibacterial agar diffusion method (inhibition zone); assay type: cell-based; conditions: E. coil (ATCC 25966)
# Procedure: as §1, §2
# [14] = system: B. cereus (ATCC 14579); assay: as above; assay type: cell-based
# Procedure: as §1, §2
# [15] = system: K. pneumonia (ATCC 700603); assay: as above; assay type: cell-based
# Procedure: as §1, §2
# [16] = system: P. aeruginosa (ATCC 27853); assay: as above; assay type: cell-based
# Procedure: as §1, §2
# [17] = system: S. enteric (ATCC 43972); assay: as above; assay type: cell-based
# Procedure: as §1, §2
# [18] = system: B. subtilis (ATCC 6633); assay: as above; assay type: cell-based
# Procedure: as §1, §2
# [19] = system: S. aureus (ATCC 25923); assay: as above; assay type: cell-based
# Procedure: as §1, §2
# [20] = system: E. faecalis (ATCC 29122); assay: as above; assay type: cell-based
# Procedure: as §1, §2
# [21] = system: S. epidermidis (ATCC 14990); assay: as above; assay type: cell-based
# Procedure: as §1, §2
# [22] = read-out: Mean IC50 (µM) of cytotoxicity
# [23] = read-out: Mean IC50 (µg/mL) of cytotoxicity
# [24] = Bacillus subtilis, ATCC6633, B. subtilis (ATCC 6633)
Structure (SMILES),viability at 100 µg/mL [1] [%],"IC50 [1, 22] [µM]","IC50 [1, 23] [µg/mL]",IC50 [2] [µM],IC50 [3] [µM],IC50 [4] [µM],IC50 [5] [µM],IC50 [6] [µM],"IC50 [7, 24] [µM]",IC50 [8] [µM],IC50 [9] [µM],IC50 [10] [µM],IC50 [11] [mM],DPPH Radical Scavenging Effenciency (%) at 1 mg/mL [11] [%],EC50 [12] [µM],melting point [°C],IZ (mm) [13] [mm],IZ (mm) [14] [mm],IZ (mm) [15] [mm],IZ (mm) [16] [mm],also measured
"CCOC(=O)C1=C(C)OC(N)=C(C#N)C1c1cccc(-c2ccccc2)c1 (stereo not shown) [4e, 6-Amino-4-biphenyl-3-yl-5-cyano-2-methyl-4H-pyran-3-carboxylic acid ethyl ester]",11 to 32.5,138 ± 9.78,49.7 ± 3.53,103 ± 3.05,33.6 ± 1.58,90.7 ± 2.78,88 ± 2.78,96.1 ± 2.5,37.7 ± 1.58,34.8 ± 2.16,37.3 ± 2.16,30.8 ± 1.58,1.65 ± 0.097,39.25 ± 1.06,305 ± 39,186 to 190,2.7 ± 0.35,23.00 ± 1.41,2.5 ± 0.7,4.5 ± 0.7,IZ (mm) [17]: 3.5 ± 0.7 mm; IZ (mm) [18]: 20.50 ± 0.71 mm; IZ (mm) [19]: 16.50 ± 2.10 mm; IZ (mm) [20]: 15.50 ± 0.71 mm; IZ (mm) [21]: 20.50 mm and 20.50 ± 2.12 mm
"COC(=O)C1=C(C)OC(N)=C(C#N)C1c1cccc(O)c1Cl (stereo not shown) [4f, 6-Amino-4-(2-chloro-3-hydroxy-phenyl)-5-cyano-2-methyl-4H-pyran-3-carboxylic acid methyl ester]",55.5,333 ± 13.4,107 ± 4.29,95.7 ± 5.61,42.4 ± 2.65,82 ± 3.43,105 ± 2.81,94.2 ± 3.43,23.6 to 36.8,38.4 ± 1.31,34.6 ± 0.59,33 ± 2.65,3.34 ± 0.131,43.75 ± 1.77,398 ± 45,238 to 240,7.5 ± 0.71,22.50 ± 0.71,4.5 ± 0.7,6.0 ± 1.4,IC50 ([7]; B. subtilis (ATCC 6633)): 36.8 ± 0.87 µM; IZ (mm) [17]: 6.5 ± 0.7 mm; IZ (mm) [18]: 19.50 ± 0.71 mm; IZ (mm) [19]: 16.50 ± 0.71 mm; IZ (mm) [20]: 19.00 ± 1.41 mm; IZ (mm) [21]: 14.50 ± 0.71 mm
"CCOC(=O)C1=C(C)OC(N)=C(C#N)C1c1c(OC)cc(OC)cc1OC (stereo not shown) [4h, 6-Amino-5-cyano-2-methyl-4-(2,4,6-trimethoxy-phenyl)-4H-pyran-3-carboxylic acid ethyl ester]",11 to 32.5,185 ± 11.5,69.2 ± 4.29,114 ± 0.8,46.5 ± 1.52,118 ± 2.67,89.5 ± 2.94,112 ± 2.94,50.1 ± 2.83,32.7 ± 0.93,45.9 ± 0.75,35.8 ± 1.52,1.31 ± 0.075,33.50 ± 2.12,221 ± 11,196 to 198,1.5 ± 0.71,4.50 ± 0.71,3.5 ± 0.7,4.5 ± 0.7,IZ (mm) [17]: 5.5 ± 0.7 mm; IZ (mm) [18]: 6.00 ± 1.41 mm; IZ (mm) [19]: 17.50 mm and 17.50 ± 0.71 mm; IZ (mm) [20]: 8.00 ± 1.41 mm; IZ (mm) [21]: 16.50 ± 0.71 mm
